This data set is described as follows: gradient 5% acetonitrile 3 min, to 50% in 2 min, to 85% in 15 min, held 3 min, 100 µL/min. The following applies: column: Zorbax Extend-C18 2.1 x 50 mm; eluents: water / acetonitrile, 0.1% formic acid. The method in brief:
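Over 3 months, pure standards in mixtures of ~100 molecules were run by HPLC coupled to a quadrupole time-of-flight mass spectrometer in positive and negative ionization mode. The column was a Zorbax Extend-C18 (2.1 × 50 mm, 1.8 μm) at 100 μL/min, eluted with water and acetonitrile each holding 0.1% formic acid, with 40 μL dead and 900 μL dwell volumes. Retention time was determined from adduct peaks chosen by software and checked manually.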
Compound `CC(C)(C)C(=O)N1C[C@@H](CO)[C@H](c2nc(-c3ccncc3)no2)C1` came in with an RP-LC retention time of 631 s.

Turning to `Cn1c(=O)c2nc(S(=O)(=O)CCC(=O)Nc3ccc(Cl)cc3)n(C)c2n(C)c1=O`, the RP-LC retention time was found to be 741 s.

As to `COc1ccc(CNC(=O)C2(C)CCN(C(=O)Nc3ccc(F)c(Cl)c3)CC2)cc1`, the RP-LC retention time turned out to be 872 s.

With `CCc1nc(OCC(=O)NCc2cccc(C)c2)c2c(C)c(C)oc2n1`, the RP-LC retention time came to 947 s.

As to `COc1ccc(S(=O)(=O)CCC(=O)N2CCCC2c2nc(-c3ccc(Cl)cc3)no2)cc1` (stereo not given), the RP-LC retention time came to 1000 s.

As for `CC(=O)Nc1ccc(S(=O)(=O)N2CCCn3nc(-c4cccc(Cl)c4)cc3C2)cc1`, the RP-LC retention time stood at 910 s.

As for `CCc1cccc(C)c1Nc1c(-c2ccc(O)c(OC)c2)nc2nc(C)cc(C)n12`, the RP-LC retention time was 710 s.

`Cc1csc(C(=O)NC2CNC(=O)C2)c1` (stereo not given) displayed an RP-LC retention time of 572 s.

With `COc1ccccc1CNC(=O)Cn1nc2cc(-c3ccccc3)nc(C)n2c1=O`, the RP-LC retention time came out at 705 s.

For the compound `CCc1ccc(S(=O)(=O)N2CCC(n3cnnc3C3CC3)CC2)cc1`, the RP-LC retention time came out at 772 s.

For the compound `COc1ccc(-c2cn3cccnc3n2)cc1NC(=O)c1ccc(Cl)cc1`, the RP-LC retention time was 743 s.

Consider `O=[N+]([O-])c1ccc2c(c1)CN(S(=O)(=O)c1cccs1)CC2`, for which the RP-LC retention time amounted to 878 s.

`CCOC(=O)c1cc(S(=O)(=O)N2CCCC2C(=O)N2CCC3(CC2)OCCO3)cn1C` (stereo not given) yielded an RP-LC retention time of 720 s.

Regarding `CC(=O)Nc1nnc(SCC(=O)Nc2ccc(OC(F)(F)F)cc2)s1`, the RP-LC retention time was 733 s.

`N#CCN(c1ccc2c(c1)OCO2)S(=O)(=O)c1ccc2nncn2c1`: the RP-LC retention time is 692 s.

`CCc1nc(OCC(=O)Nc2ccc(Cl)c(C(F)(F)F)c2)c2ccccc2n1`: the RP-LC retention time amounted to 997 s.

Compound `O=C(C1CC1)N1CCCC1c1nc2ccccc2s1` (stereo not given) returned an RP-LC retention time of 768 s.

In the case of `CN1CCC(Nc2ncc3ncnc(Nc4ccc(F)c(Cl)c4)c3n2)CC1`, the RP-LC retention time is 710 s.

Regarding `COc1ccc(-c2nc(Cc3noc(-c4ccc(C#N)cc4)n3)c(C)o2)cc1`, the RP-LC retention time was 1070 s.

Take `CCOc1ccc(-c2noc(Cn3c(=O)n(C(C)CC)c(=O)c4ccccc43)n2)cc1` (stereo not given): the RP-LC retention time came out at 1170 s.

On to `O=C(Cn1c(=O)c2cc(-c3cccs3)nn2c2ncccc21)Nc1ccc(Cl)cc1`, for which the RP-LC retention time amounted to 932 s.

For `CCN1CCN(CCNC(=O)Cc2cccn2-c2ccc(Cl)cc2)CC1`, the RP-LC retention time amounted to 612 s.

For the compound `COc1cccc(CNC(=O)C2CCCN(c3ncnc4c3nc3n4CCCCC3)C2)c1` (stereo not given), the RP-LC retention time came out at 736 s.

The compound `CN(C)CCCn1cc2c(c1-c1cccc(Br)c1)c(=O)n(C)c(=O)n2C` returned an RP-LC retention time of 617 s.

The compound `Cc1ccc(C2NC(=O)N(CC(=O)Nc3ccc4c(c3)CCC4)C3=C2C(=O)OC3)cc1` (stereo not given) registered an RP-LC retention time of 856 s.

Consider `COC(=O)c1cc(S(=O)(=O)N2CCN(c3ccccn3)CC2)c(C)n1C`, for which the RP-LC retention time is 630 s.

For the compound `O=C(NC1(c2nc(-c3ccccc3)no2)CCCCC1)c1cccc(Cl)c1`, the RP-LC retention time was found to be 1230 s.

`CC(C)n1c(N2CCN(C(=O)c3cccnc3)CC2)cc(=O)n(C(C)C)c1=O` registered an RP-LC retention time of 602 s.

`Cc1nn(-c2ccc(Cl)cc2)c(C)c1S(=O)(=O)N1CCC(C(=O)NC2CC2)CC1`: the RP-LC retention time worked out at 835 s.

On to `Cc1nn(-c2ccccc2)c(C)c1S(=O)(=O)N1CCC(C(=O)N2CCCCCC2)CC1`, for which the RP-LC retention time was found to be 912 s.

`COc1ccc2[nH]c(=O)c(CCC(=O)Nc3ccc(OC)c(OC)c3)cc2c1`: the RP-LC retention time was found to be 666 s.

`CCN1C(=O)c2cccnc2Sc2cc(CNC(=O)Cc3ccc(F)cc3)ccc21`: the RP-LC retention time was determined as 761 s.

The compound `CC(C)NC(=O)CN1C(=O)CSc2ccc(C(=O)N3CCCCC3)cc21` came in with an RP-LC retention time of 673 s.

`COc1cccc(CN2CCn3c(nnc3[C@@H]3C[C@@H](O)CN3Cc3ccccc3)C2)c1` displayed an RP-LC retention time of 622 s.

As to `O=C(Cc1cccc(F)c1)N1CCC(n2cnnc2-c2ccccc2)C1` (stereo not given), the RP-LC retention time is 686 s.

With `Cc1cc(C(N)=O)c2cc(Cl)ccc2n1`, the RP-LC retention time came out at 592 s.

The compound `NC(=O)C1CCN(C(=O)CN2CCc3ccccc32)CC1` registered an RP-LC retention time of 610 s.

For `CCN1C(=O)c2cccnc2Sc2cc(NC(=O)COc3cccc(Cl)c3)ccc21`, the RP-LC retention time stood at 916 s.

`CS(=O)(=O)N1CCCC1C(=O)Nc1nc(-c2cc(Cl)sc2Cl)cs1` (stereo not given): the RP-LC retention time turned out to be 993 s.

`Cc1ccc(-n2nc(C)c(S(=O)(=O)N3CCC(C(=O)NCC4CCCO4)CC3)c2C)cc1` (stereo not given) returned an RP-LC retention time of 807 s.

Turning to `CCC(C)NS(=O)(=O)c1c(C)nn(-c2ccc(-c3ccc(C)cc3)nn2)c1C` (stereo not given), the RP-LC retention time was determined as 1040 s.

In turn, `COc1ccc(-c2ncccc2CNS(=O)(=O)c2cc(C)cc(C)c2)cc1` yielded an RP-LC retention time of 717 s.

The compound `O=C(Cn1ccn2nc(-c3ccccc3)c(CO)c2c1=O)Nc1cccc(Cl)c1` returned an RP-LC retention time of 856 s.

For `CC(C)CN1C(=O)c2cccn2CC1C(=O)NCc1cccs1` (stereo not given), the RP-LC retention time stood at 754 s.

`CO[C@H]1C(=O)N(C(C)C)[C@H]1C1CCN(C(=O)C(C)C)CC1` had an RP-LC retention time of 682 s.

`Cc1nc(-n2cccc2)sc1C(=O)NCc1cc(-c2cccs2)on1` returned an RP-LC retention time of 894 s.

For the compound `O=c1oc2c(O)c(O)ccc2c2c1CCCC2`, the RP-LC retention time was 683 s.

Regarding `C[C@H]1CN(C(=O)Cc2c[nH]c3ccccc23)C[C@@H]1c1nc(-c2cccnc2)no1`, the RP-LC retention time was determined as 755 s.

Turning to `Cc1ccc(CN2CCN(C3CCN(C(=O)Nc4ccc5c(c4)OCO5)CC3)C(=O)C2=O)cc1`, the RP-LC retention time was determined as 696 s.

Turning to `O=C(CN1C(=O)CCCc2cc(S(=O)(=O)N3CCCCC3)ccc21)NCc1ccccc1Cl`, the RP-LC retention time is 909 s.

For `Cc1cc(C)c(S(=O)(=O)N2CCCC2c2nc(-c3ccc(F)cc3)no2)c(C)c1` (stereo not given), the RP-LC retention time worked out at 1270 s.

Turning to `O=C(c1ccoc1)N1CCCC(OCc2nc(-c3ccncc3)no2)C1` (stereo not given), the RP-LC retention time was found to be 668 s.

In turn, `COCCN1C(=O)CCc2cc(NS(=O)(=O)c3ccc(Cl)s3)ccc21` returned an RP-LC retention time of 793 s.

With `CCCCC(=O)Nc1ccc2c(c1)nc(CN1CCN(C(=O)c3ccco3)CC1)n2C`, the RP-LC retention time came to 619 s.

`CC(=O)N1CCN(C(=O)c2ccc(C(=O)O)cc2)CC1` came in with an RP-LC retention time of 530 s.

`CCc1c(C(=O)O)nnn1-c1ccc2c(c1)OCCO2` came in with an RP-LC retention time of 702 s.

`Cc1c(Cl)ccc2c(=O)c3c([nH]c12)CCN(CC(=O)Nc1ccc2c(c1)OCCO2)C3` yielded an RP-LC retention time of 646 s.

`CCOC(=O)CCc1c(C)nn(-c2cc(N(C)C)ncn2)c1C` came in with an RP-LC retention time of 834 s.

Compound `O=C(O)c1cc(-c2ccccc2)nc2ccccc12` gave an RP-LC retention time of 849 s.

For `COc1ccc(-c2nc(C)cc(C)c2CNS(=O)(=O)c2ccc(C#N)cc2)cc1`, the RP-LC retention time came out at 636 s.

Compound `CCOC(=O)c1noc2nc(C)nc(NCCc3ccc(OCC)cc3)c12` gave an RP-LC retention time of 1170 s.

Take `COc1c(C(=O)NC(C)C)sc2cc(Cl)ccc12`: the RP-LC retention time was determined as 1060 s.

In turn, `CC(=O)N[C@@H]1CCN(Cc2ccccc2C(F)(F)F)C[C@@H]1CO` showed an RP-LC retention time of 574 s.

As to `Cc1cccc(Nc2nc(C(=O)N3CCC(C(N)=O)CC3)cs2)n1`, the RP-LC retention time is 572 s.

`CCn1c(N2CCCC(C(=O)NCc3cccc(C)c3)C2)cc(=O)n(C)c1=O` (stereo not given): the RP-LC retention time came to 824 s.

Turning to `CCn1cc(-c2ccc(C)cc2)cc1C(=O)NCC1CCCO1` (stereo not given), the RP-LC retention time came to 614 s.

In the case of `COc1ccc(-c2nc(-c3nnn(Cc4ccccc4)c3C)no2)c(OC)c1`, the RP-LC retention time is 990 s.

`COC(=O)CNC(=O)N1CCN(Cc2ccc(C)cc2)c2ncccc21` gave an RP-LC retention time of 651 s.

`CNS(=O)(=O)c1cc(C(=O)Nc2cc(C)on2)oc1C` had an RP-LC retention time of 643 s.

With `CCCn1ccc2sc(C)c(C(=O)NCc3ccc(F)cc3F)c2c1=O`, the RP-LC retention time stood at 925 s.

On to `CNC(=O)c1csc2c1CCCCC2`, for which the RP-LC retention time was found to be 787 s.

`CC1CCCCN1CCNC(=O)c1c2c(cn(-c3ccc(F)cc3)c1=O)C(=O)CC(C)(C)C2` (stereo not given) yielded an RP-LC retention time of 675 s.

Consider `Cc1ccc(S(=O)(=O)n2ccn(C(=O)C(C)Oc3ccccc3)c2=O)cc1` (stereo not given), for which the RP-LC retention time is 712 s.

For the compound `Cc1noc([C@@H]2CN(C(=O)CC(C)(C)C)C[C@H]2CO)n1`, the RP-LC retention time came to 644 s.

For `Cc1noc(C2CN(C(=O)NC3CCCC3)CC23CCOCC3)n1` (stereo not given), the RP-LC retention time turned out to be 633 s.

`COc1ccccc1C(=O)NCc1ccc2c(c1)ncn2C(C)C`: the RP-LC retention time came out at 603 s.

The compound `O=C(Cn1cccc(-c2nc(-c3ccc(F)cc3)no2)c1=O)Nc1ccc(F)cc1` had an RP-LC retention time of 878 s.

Consider `CCn1ncc(C(=O)N2CCCn3ccnc3C2C(C)C)c1C` (stereo not given), for which the RP-LC retention time was 567 s.

For `Cc1cc(-c2cc(S(=O)(=O)N3CCC(Cc4ccccc4)CC3)c(C)s2)n[nH]1`, the RP-LC retention time is 1090 s.

With `Cc1ccc(NS(=O)(=O)c2ccc(-c3nnc(C4CCC4)o3)o2)cc1`, the RP-LC retention time was 926 s.

Values taken from the METLIN SMRT retention time set (Domingo-Almenara et al. 2019).
